Test results taken from patent US20250282799A1, “SUBSTITUTED PYRIDO[4,3-d]PYRIMIDINES AS KRAS MODULATORS” (Alterome Therapeutics, Inc., priority 2023, published 2025).

System: KRAS G12V dependent lung adenocarcinoma cell line, NCI-H441
Test: Cellular pERK (Thr202/Tyr204) FRET/HTRF assay
Type: cell-based
Settings: Homo sapiens, NCI-H441, pERK HTRF, NCI-H441 cells (KRAS G12V)
How it was run: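 Phospho-ERK1/2 (Thr202/Tyr204) quantified by two-antibody HTRF in lysed NCI-H441 cells. Cells seeded overnight, treated with test compounds for 1 hr at 37 °C against DMSO control, then lysed and detected at room temperature; IC50 obtained by curve fitting.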

Structure (SMILES) | IC50 [nM]
[2H]C([2H])(Oc1nc(N2CCCO[C@@H]3C[C@@H]32)c2c(OC)nc(-c3cc(N)cc4cc(F)c(F)c(C#C)c34)c(F)c2n1)[C@@]12CCCN1C[C@H](F)C2 [Example 33, 4-(4-((1R,7S)-2-Oxa-6-azabicyclo[5.1.0]octan-6-yl)-8-fluoro-2-(((2R,7aS)-2-fluorotetrahydro-1H-pyrrolizin-7a(5H)-yl)methoxy-d2)-5-methoxypyrido[4,3-d]pyrimidin-7-yl)-5-ethynyl-6,7-difluoronaphthalen-2-amine] | 50 to 500
[2H]C([2H])(Oc1nc(N2CCCO[C@H]3C[C@H]32)c2c(OC)nc(-c3cc(N)cc4cc(F)c(F)c(C#C)c34)c(F)c2n1)[C@@]12CCCN1C[C@H](F)C2 [Example 34, 4-(4-((1S,7R)-2-Oxa-6-azabicyclo[5.1.0]octan-6-yl)-8-fluoro-2-(((2R,7aS)-2-fluorotetrahydro-1H-pyrrolizin-7a(5H)-yl)methoxy-d2)-5-methoxypyrido[4,3-d]pyrimidin-7-yl)-5-ethynyl-6,7-difluoronaphthalen-2-amine] | < 50
[2H]C([2H])(Oc1nc(N2CCCO[C@@H]3C[C@@H]32)c2c(OC)nc(-c3cc(O)cc4ccc(F)c(C#C)c34)c(F)c2n1)[C@@]12CCCN1C[C@H](F)C2 [Example 35, 4-(4-((1R,7S)-2-Oxa-6-azabicyclo[5.1.0]octan-6-yl)-8-fluoro-2-(((2R,7aS)-2-fluorotetrahydro-1H-pyrrolizin-7a(5H)-yl)methoxy-d2)-5-methoxypyrido[4,3-d]pyrimidin-7-yl)-5-ethynyl-6-fluoronaphthalen-2-ol] | 50 to 500
[2H]C([2H])(Oc1nc(N2CCCO[C@H]3C[C@H]32)c2c(OC)nc(-c3cc(O)cc4ccc(F)c(C#C)c34)c(F)c2n1)[C@@]12CCCN1C[C@H](F)C2 [Example 36, 4-(4-((1S,7R)-2-Oxa-6-azabicyclo[5.1.0]octan-6-yl)-8-fluoro-2-(((2R,7aS)-2-fluorotetrahydro-1H-pyrrolizin-7a(5H)-yl)methoxy-d2)-5-methoxypyrido[4,3-d]pyrimidin-7-yl)-5-ethynyl-6-fluoronaphthalen-2-ol] | < 50
[2H]C([2H])(Oc1nc(N2CCO[C@@H]3[C@@H](F)[C@@H]32)c2cnc(-c3cc(N)cc4cc(F)c(F)c(C#C)c34)c(F)c2n1)[C@@]12CCCN1C[C@H](F)C2 [Example 37, 5-Ethynyl-6,7-difluoro-4-(8-fluoro-4-((1S,6R,7S)-7-fluoro-2-oxa-5-azabicyclo[4.1.0]heptan-5-yl)-2-(((2R,7aS)-2-fluorotetrahydro-1H-pyrrolizin-7a(5H)-yl)methoxy-d2)pyrido[4,3-d]pyrimidin-7-yl)naphthalen-2-amine] | 50 to 500
[2H]C([2H])(Oc1nc(N2CCO[C@H]3[C@H](F)[C@H]32)c2cnc(-c3cc(N)cc4cc(F)c(F)c(C#C)c34)c(F)c2n1)[C@@]12CCCN1C[C@H](F)C2 [Example 38, 5-Ethynyl-6,7-difluoro-4-(8-fluoro-4-((1R,6S,7R)-7-fluoro-2-oxa-5-azabicyclo[4.1.0]heptan-5-yl)-2-(((2R,7aS)-2-fluorotetrahydro-1H-pyrrolizin-7a(5H)-yl)methoxy-d2)pyrido[4,3-d]pyrimidin-7-yl)naphthalen-2-amine] | < 50
[2H]C([2H])([2H])Oc1c(F)c(F)c(F)c2cc(N)cc(-c3ncc4c(N5CCOC[C@H]6[C@H](F)[C@H]65)nc(OC([2H])([2H])[C@@]56CCCN5C[C@H](F)C6)nc4c3F)c12 [Example 41, 6,7,8-Trifluoro-4-(8-fluoro-4-((1S,7S,8S)-8-fluoro-5-oxa-2-azabicyclo[5.1.0]octan-2-yl)-2-(((2R,7aS)-2-fluorotetrahydro-1H-pyrrolizin-7a(5H)-yl)methoxy-d2)pyrido[4,3-d]pyrimidin-7-yl)-5-(methoxy-d3)naphthalen-2-amine] | < 50
[2H]C([2H])([2H])Oc1c(F)c(F)cc2cc(N)cc(-c3ncc4c(N5CCOC[C@H]6[C@H](F)[C@H]65)nc(OC([2H])([2H])[C@@]56CCCN5C[C@H](F)C6)nc4c3F)c12 [Example 44, 6,7-Difluoro-4-(8-fluoro-4-((1S,7S,8S)-8-fluoro-5-oxa-2-azabicyclo[5.1.0]octan-2-yl)-2-(((2R,7aS)-2-fluorotetrahydro-1H-pyrrolizin-7a(5H)-yl)methoxy-d2)pyrido[4,3-d]pyrimidin-7-yl)-5-(methoxy-d3)naphthalen-2-amine] | < 50
[2H]C([2H])([2H])Oc1c(C#N)ccc2cc(N)cc(-c3ncc4c(N5CCCC[C@H]6[C@H](F)[C@H]65)nc(OC([2H])([2H])[C@@]56CCCN5C[C@H](F)C6)nc4c3F)c12 [Example 49, 6-Amino-8-(8-fluoro-4-((1S,7R,8S)-8-fluoro-2-azabicyclo[5.1.0]octan-2-yl)-2-(((2R,7aS)-2-fluorotetrahydro-1H-pyrrolizin-7a(5H)-yl)methoxy-d2)pyrido[4,3-d]pyrimidin-7-yl)-1-(methoxy-d3)-2-naphthonitrile] | < 50

The remaining lines, values ahead:

IC50 [nM] | Structure (SMILES)
50 to 500 | [2H]C([2H])(Oc1nc(N2CCO[C@H]3C[C@H]32)c2cnc(-c3cc(N)cc4cc(F)c(F)c(C#C)c34)c(F)c2n1)[C@@]12CCCN1C[C@H](F)C2 [Example 32, 4-(4-((1S,6R)-2-Oxa-5-azabicyclo[4.1.0]heptan-5-yl)-8-fluoro-2-(((2R,7aS)-2-fluorotetrahydro-1H-pyrrolizin-7a(5H)-yl)methoxy-d2)pyrido[4,3-d]pyrimidin-7-yl)-5-ethynyl-6,7-difluoronaphthalen-2-amine]
50 to 500 | [2H]C([2H])(Oc1nc(N2CCCO[C@H]3C[C@H]32)c2cnc(-c3ccc(F)c4sc(N)c(C#N)c34)c(F)c2n1)[C@@]12CCCN1C[C@H](F)C2 [Example 39, 4-(4-((1S,7R)-2-Oxa-6-azabicyclo[5.1.0]octan-6-yl)-8-fluoro-2-(((2R,7aS)-2-fluorotetrahydro-1H-pyrrolizin-7a(5H)-yl)methoxy-d2)pyrido[4,3-d]pyrimidin-7-yl)-2-amino-7-fluorobenzo[b]thiophene-3-carbonitrile]
500 to 10000 | [2H]C([2H])(Oc1nc(N2CCCO[C@@H]3C[C@@H]32)c2cnc(-c3ccc(F)c4sc(N)c(C#N)c34)c(F)c2n1)[C@@]12CCCN1C[C@H](F)C2 [Example 40, 4-(4-((1R,7S)-2-Oxa-6-azabicyclo[5.1.0]octan-6-yl)-8-fluoro-2-(((2R,7aS)-2-fluorotetrahydro-1H-pyrrolizin-7a(5H)-yl)methoxy-d2)pyrido[4,3-d]pyrimidin-7-yl)-2-amino-7-fluorobenzo[b]thiophene-3-carbonitrile]
< 50 | [2H]C([2H])(Oc1nc(N2CCOC[C@H]3[C@H](F)[C@H]32)c2cnc(-c3cccc4cc(F)c(F)c(C#C)c34)c(F)c2n1)[C@@]12CCCN1C[C@H](F)C2 [Example 42, (1S,7S,8S)-2-(7-(8-Ethynyl-6,7-difluoronaphthalen-1-yl)-8-fluoro-2-(((2R,7aS)-2-fluorotetrahydro-1H-pyrrolizin-7a(5H)-yl)methoxy-d2)pyrido[4,3-d]pyrimidin-4-yl)-8-fluoro-5-oxa-2-azabicyclo[5.1.0]octane]
< 50 | [2H]C([2H])([2H])Oc1c(F)ccc2cccc(-c3ncc4c(N5CCOC[C@H]6[C@H](F)[C@H]65)nc(OC([2H])([2H])[C@@]56CCCN5C[C@H](F)C6)nc4c3F)c12 [Example 43, (1S,7S,8S)-8-Fluoro-2-(8-fluoro-7-(7-fluoro-8-(methoxy-d3)naphthalen-1-yl)-2-(((2R,7aS)-2-fluorotetrahydro-1H-pyrrolizin-7a(5H)-yl)methoxy-d2)pyrido[4,3-d]pyrimidin-4-yl)-5-oxa-2-azabicyclo[5.1.0]octane]
< 50 | [2H]C([2H])(Oc1nc(N2CCOC[C@H]3[C@H](F)[C@H]32)c2cnc(-c3cccc4ccc(F)c(C#C)c34)c(F)c2n1)[C@@]12CCCN1C[C@H](F)C2 [Example 45, (1S,7S,8S)-2-(7-(8-Ethynyl-7-fluoronaphthalen-1-yl)-8-fluoro-2-(((2R,7aS)-2-fluorotetrahydro-1H-pyrrolizin-7a(5H)-yl)methoxy-d2)pyrido[4,3-d]pyrimidin-4-yl)-8-fluoro-5-oxa-2-azabicyclo[5.1.0]octane]
500 to 10000 | [2H]C([2H])(Oc1nc(N2CCOC[C@@H]3[C@@H](F)[C@@H]32)c2cnc(-c3cccc4ccc(F)c(C#C)c34)c(F)c2n1)[C@@]12CCCN1C[C@H](F)C2 [Example 46, (1R,7R,8R)-2-(7-(8-ethynyl-7-fluoronaphthalen-1-yl)-8-fluoro-2-(((2R,7aS)-2-fluorotetrahydro-1H-pyrrolizin-7a(5H)-yl)methoxy-d2)pyrido[4,3-d]pyrimidin-4-yl)-8-fluoro-5-oxa-2-azabicyclo[5.1.0]octane]
500 to 10000 | [2H]C([2H])(Oc1nc(N2CCOC[C@@H]3C[C@@H]32)c2cnc(-c3ccc(F)c4sc(N)c(C#N)c34)c(F)c2n1)[C@@]12CCCN1C[C@H](F)C2 [Example 47, 4-(4-((1S,7R)-5-Oxa-2-azabicyclo[5.1.0]octan-2-yl)-8-fluoro-2-(((2R,7aS)-2-fluorotetrahydro-1H-pyrrolizin-7a(5H)-yl)methoxy-d2)pyrido[4,3-d]pyrimidin-7-yl)-2-amino-7-fluorobenzo[b]thiophene-3-carbonitrile]
50 to 500 | [2H]C([2H])(Oc1nc(N2CCOC[C@H]3C[C@H]32)c2cnc(-c3ccc(F)c4sc(N)c(C#N)c34)c(F)c2n1)[C@@]12CCCN1C[C@H](F)C2 [Example 48, 4-(4-((1R,7S)-5-Oxa-2-azabicyclo[5.1.0]octan-2-yl)-8-fluoro-2-(((2R,7aS)-2-fluorotetrahydro-1H-pyrrolizin-7a(5H)-yl)methoxy-d2)pyrido[4,3-d]pyrimidin-7-yl)-2-amino-7-fluorobenzo[b]thiophene-3-carbonitrile]
